The source of these data is ChEMBL document CHEMBL1130770, “Solid phase synthesis of benzylamine-derived sulfonamide library” (Bioorg Med Chem Lett, 1998).

SMILES strings stand for the structures.

The experiment deals with Prothrombin (Homo sapiens, UniProt P00734). In words: Inhibition constant was evaluated for inhibitory activity against the blood coagulant thrombin.
By Ki is commonly meant a measure of affinity in units of concentration, obtained from inhibition or displacement. The low end stands for a stronger hold on the target, the high end for a looser hold on the target. As for `CCCc1ccc(S(=O)(=O)N[C@@H](Cc2ccc(CN)cc2)C(=O)N(C)C2CCCC2)cc1`, the affinity corresponds to a Ki of 10 nM.

Compound `CN(C)C(=O)[C@H](Cc1ccc(CN)cc1)NS(=O)(=O)c1ccc2ccccc2c1` gave a Ki of 3060 nM.

For `NCc1ccc(C[C@H](NS(=O)(=O)c2ccc3ccccc3c2)C(=O)N2CCC(O)CC2)cc1`, the Ki came to 15600 nM.

As for `CC(C)N(C)C(=O)[C@H](Cc1ccc(CN)cc1)NS(=O)(=O)c1ccc2ccccc2c1`, the Ki came out at 600 nM.

In turn, `NCc1ccc(C[C@H](NS(=O)(=O)c2ccc3ccccc3c2)C(=O)N2CCCC2)cc1` returned a Ki of 200 nM.

Consider `CC(C)NC(=O)[C@H](Cc1ccc(CN)cc1)NS(=O)(=O)c1ccc2ccccc2c1`, for which the Ki stood at 31700 nM.

As to `CN(C(=O)[C@H](Cc1ccc(CN)cc1)NS(=O)(=O)c1ccc2ccccc2c1)C1CCCC1`, affinity was put at a Ki of 50 nM.

For `NCc1ccc(C[C@H](NS(=O)(=O)c2ccc3ccccc3c2)C(=O)NCc2ccccc2)cc1`, the affinity, expressed as Ki, was 97200 nM.
